This test has as its system COS Cell. Description: COS Cell IC50 (Cell-Based Assay), procedures of WO 95/10516. The protocol: FPT IC50 (inhibition of farnesyl protein transferase, in vitro enzyme assay) and COS Cell IC50 (Cell-Based Assay) were determined following the assay procedures described in WO 95/10516, published April 20, 1995. GGPT IC50 (inhibition of geranylgeranyl protein transferase, in vitro enzyme assay), Cell Mat Assay, and anti-tumor activity (in vivo anti-tumor studies) could be determined by the assay procedures described in WO 95/ 10516. The disclosure of WO 95/10516 is incorporated herein by reference thereto.

Experimental findings from patent EP0993460B1, “BENZO(5,6)CYCLOHEPTA(1,2B)PYRIDINE DERIVATIVES USEFUL FOR INHIBITION OF FARNESYL PROTEIN TRANSFERASE” (SCHERING CORPORATION, priority 1997, dated 1998) are described below.

Each structure is given as a SMILES string.

One may read the IC50 as the concentration at which inhibition is half-maximal. Lower therefore signals higher potency. `CC1(CC(=O)N2CCC([C@H]3c4ncc(Br)cc4CCc4cc(Cl)cc(Br)c43)CC2)CCN(S(C)(=O)=O)CC1` [Example 1, (+) -4-(3,10-dibromo-8-chloro-6,11-dihydro-5H-benzo[5,6]cyclohepta[1,2-b]pyridin-11(R)-yl)-1-[[4-methyl-1-(methylsulfonyl)-4-pyridinyl]acetyl]piperidine]: half-maximal inhibition (IC50) required 22 nM.
